Measurements reported in patent US4880791A, “Combination product composed of xanthine derivatives and O-acetylsalicylic acid or its pharmacologically tolerated salts, and its use” (priority 1984, dated 1989).

How the values were obtained:
[1] = test system: laser-induced thrombosis in the arterioles and venules of the rat mesentery; test: laser-induced thrombosis in arterioles of the rat mesentery; type: in vivo, rat (female Sprague-Dawley); conditions: for percentage improvement compared with the placebo controls: 10 mg/kg xanthine derivative and, 1 hour later, 1 mg/kg acetylsalicylic acid orally; for percentage improvement compared with the placebo controls / inhibition in vivo at 10 mg/kg: n = 3; for inhibition in vivo at 10 mg/kg: Rattus norvegicus, po, 10 mg/kg xanthine derivative orally, read-out: percentage improvement compared with the placebo controls; for Changes from controls, % / Changes from controls, absolute / Number of shots: single substance
Description: The evaluation was carried out by analysis by vital microscopy (Nature, 218 (1968) 887 and Haemostasis 13 (1983) 61 and IRCS Med. Sci. 12 (1984) 91).
The test substances were administered in 0.9% sodium chloride solution (which contained 1% carboxymethylcellulose (Serva, Heidelberg)) either orally, intraperitoneally or intravenously. Control animals were treated in the corresponding manner but without the test substances. The experimental animals used were male or female Sprague-Dawley or Wistar rats.
The animals which were to be investigated underwent s.c. premedication with 0.1 mg of atropine sulfate in solution and were anesthetized with 100 mg of ketamine hydrochloride and 4 mg of xylazine per kg of body weight i.p. The investigation made use of arterioles and venules of the mesentery, which was coated with degassed liquid paraffin, having a diameter of about 13 μm. The beam of a 4 W argon laser (supplied by Spectra Physics, Darmstadt) was introduced coaxially, by means of a beam adaptation and adjustment system (supplied by BTG, Munich), into the inverted optical path of a microscope (ICM 405, LD-Epipland 40/0.60; supplied by Zeiss, Oberkochen). The wavelength used was 514.5 nm, with an energy above the objective of 30.5 mW. The exposure time per single shot was 1/15 sec. All the measuring operations were recorded by video camera (Trinicon tube, Sony, Cologne) and stored in a recorder (Sony, U-matic 3/4"). The test substances were administered in various doses to the experimental animals, orally one hour, and on i.v. administration 10 min., before the start of the experiment, control animals receiving the same amount of placebo.
The number of shots needed to induce a defined thrombus is counted.
The results of the experiment were subjected to statistical analysis using the .chi.^2 test (L. Cavalli-Sforza, Biometrie (Biostatistics), Stuttgart, 1969, pages 49 et seq.). […]

platelet aggregation = test: ex vivo platelet aggregation (arachidonic acid, Born aggregometer); type: in vivo, rabbit
[2] = test system: tendency to thrombosis in arthritic rat; test: laser-induced tendency to thrombosis in arthritic rats; type: in vivo; conditions: 30 mg, oral 21 days
Description: (§1) The hemorheological, antithrombotic, antiaggregatory and antiinflammatory effects of the combinations according to the invention were investigated after oral administration for 21 days in the pathological model of adjuvant arthritis (induced with Mycobacterium butyricum) is the rat by the method of Clincal Hemorheology 3 (1983) 469-480, and were compared with those of the appropriate individual substances. Blood was taken from the thoracic aorta 1 hour after the last administration of substance. All the details of the determination of the hemorheological effect were as described in Clinical Hemorheology 4 (1984) 263-273. The erythocyte deformability was quantitatively determined in a filtrometer (Myrenne MF 4, Roetgen, Germany) by evaluation of the initial gradient of the flow curve.
The antithrombotic effect was measured using the laser model as described above.

erythrocytes = conditions: treatment with pentoxifylline; cited from earlier work
[3] = test system: adjuvant arthritis (Mycobacterium butyricum) in the rat; test: antiinflammatory effect in adjuvant arthritis (paw edema, necrosis index); type: in vivo; conditions: 30 mg
Description: as §1
The antiflammatory effect was quantitatively measured, as quoted above, using the volume of the edema of the paw and using the standard necrosis index.

rat aortas = rat aortas ex vivo, treatment of the animals; cited from earlier work
[4] = test system: erythrocyte filterability; test: erythrocyte filterability in adjuvant arthritis rats; type: in vivo, rat; conditions: oral 21 days
Description: as §1

[5] = test system: induced platelet aggregation; test: collagen-induced platelet aggregation in arthritic rats; type: in vivo, rat; conditions: 30 mg, oral 21 days
Description: as §1
The measurements of platelet aggregation were carried out as described above in detail. However, instead of arachidonic acid 0.04 mg of collagen was used to induce platelet aggregation in 1 ml of platelet-rich plasma (PA II aggregometer from Myrenne, Roetgen).

platelets = conditions: only at concentrations above those used in medicinal treatment; cited from earlier work

CC(C)Cn1c(=O)c2c(ncn2CCCCC(C)O)n(C)c1=O (stereo not drawn) [1-(2-Methylpropyl)-3-methyl-7-(5-hydroxyhexyl)-xanthine]
percentage improvement compared with the placebo controls [1]: 39% | inhibition in vivo at 10 mg/kg [1]: 29%

CC(=O)CCCCn1cnc2c1c(=O)n(CC(C)C)c(=O)n2C [1-(2-Methylpropyl)-3-methyl-7-(5-oxohexyl-)-xanthine]
percentage improvement compared with the placebo controls [1]: 39% | inhibition in vivo at 10 mg/kg [1]: 28%

CC(C)CCn1c(=O)c2c(ncn2CCCCC(C)O)n(C)c1=O (stereo not drawn) [1-(3-Methylbutyl)-3-methyl-7-(5-hydroxyhexyl-)-xanthine]
percentage improvement compared with the placebo controls [1]: 37% | inhibition in vivo at 10 mg/kg [1]: 28%

CC(=O)CCCCn1cnc2c1c(=O)n(CCC(C)C)c(=O)n2C [1-(3-Methylbutyl-3-methyl-7-(5-oxo-hexyl)-xanthine]
percentage improvement compared with the placebo controls [1]: 35% | inhibition in vivo at 10 mg/kg [1]: 26%

CCCn1cnc2c1c(=O)n(CCC(C)=O)c(=O)n2C [1-(3-Oxobutyl)-3-methyl-7-propyl-xanthine]
percentage improvement compared with the placebo controls [1]: 49% | inhibition in vivo at 10 mg/kg [1]: 40%

CC(O)CCCCn1c(=O)c2c(ncn2C)n(C)c1=O (stereo not drawn) [1-(5-Hydroxyhexyl)-3,7-dimethyl-xanthine, 1-(5-hydroxyhexyl)-3,7-dimethylxanthine]
percentage improvement compared with the placebo controls [1]: 68% | inhibition in vivo at 10 mg/kg [1]: 52%

CC(C)Cn1cnc2c1c(=O)n(CCCCC(C)O)c(=O)n2C (stereo not drawn) [1-(5-Hydroxyhexyl)-3-methyl-7-(2-methyl-propyl)-xanthine]
percentage improvement compared with the placebo controls [1]: 34% | inhibition in vivo at 10 mg/kg [1]: 23%

CCCn1cnc2c1c(=O)n(CCCCC(C)O)c(=O)n2C (stereo not drawn) [1-(5-Hydroxyhexyl)-3-methyl-7-propylxanthine]
percentage improvement compared with the placebo controls [1]: 53% | inhibition in vivo at 10 mg/kg [1]: 40%

CC(=O)CCCCn1c(=O)c2c(ncn2CC(C)C)n(C)c1=O [1-(5-Oxohexyl)-3-methyl-7-(2-methyl-propyl-)-xanthine]
percentage improvement compared with the placebo controls [1]: 39% | inhibition in vivo at 10 mg/kg [1]: 28%

CCCn1cnc2c1c(=O)n(CCCCC(C)=O)c(=O)n2C [1-(5-Oxohexyl)-3-methyl-7-propylxanthine]
percentage improvement compared with the placebo controls [1]: 56% | inhibition in vivo at 10 mg/kg [1]: 42%

CC(O)CCCCn1cnc2c1c(=O)n(C(C)C)c(=O)n2C (stereo not drawn) [1-(Isopropyl)-3-methyl-7-(5-hydroxy-hexyl-)-xanthine]
percentage improvement compared with the placebo controls [1]: 36% | inhibition in vivo at 10 mg/kg [1]: 31%

CCn1c(=O)c2c(ncn2CCCCC(C)=O)n(CC)c1=O [1-Ethyl-3-ethyl-7-(5-oxohexyl-)-xanthine]
percentage improvement compared with the placebo controls [1]: 48% | inhibition in vivo at 10 mg/kg [1]: 41%

CCCCCCn1c(=O)c2c(ncn2C)n(C)c1=O [1-Hexyl-3,7-dimethylxanthine]
percentage improvement compared with the placebo controls [1]: 46% | inhibition in vivo at 10 mg/kg [1]: 39%

CCCn1c(=O)c2c(ncn2CCCCC(C)O)n(C)c1=O (stereo not drawn) [1-Propyl-3-methyl-7-(5-hydroxyhexyl-)-xanthine]
percentage improvement compared with the placebo controls [1]: 42% | inhibition in vivo at 10 mg/kg [1]: 35%

CCCCn1c(=O)c2c(ncn2CC(C)=O)n(CCCC)c1=O [1-n-Butyl-3-n-butyl-7-(2-oxopropyl-)-xanthine]
percentage improvement compared with the placebo controls [1]: 50% | inhibition in vivo at 10 mg/kg [1]: 33%

CC(=O)Oc1ccccc1C(=O)O [DL-Lysine monoacetylsalicylate, D,L-lysine monoacetylsalicylate]
Aggregation amplitude E ex vivo (platelet aggregation; I, at 30 min, 1,5 mg/kg i.v. at 15 min): 23,5 | Aggregation amplitude E ex vivo (platelet aggregation; I, at 45 min, 1,5 mg/kg i.v. at 15 min and 0,5 mg/kg at 35 min): 19,5

CC(=O)CCCCn1c(=O)c2c(ncn2C)n(C)c1=O [Pentoxifylline, 1-(5-oxohexyl)-3,7-dimethylxanthine]
Aggregation amplitude E ex vivo (platelet aggregation; III, at 45 min, 10 mg/kg i.v. at 15 min): 22 | Aggregation amplitude E ex vivo (platelet aggregation; III, at 120 min, 10 mg/kg i.v. at 15 min and 10 mg/kg at 60 min): 20 | tendency to thrombosis (number of shots) [2]: 87% | deformability of the erythrocytes (erythrocytes): improved | Changes from controls, % ([1]; 5 mg/kg oral): 21% | Changes from controls, absolute ([1]; 5 mg/kg oral): 0,46 | Number of shots ([1]; 5 mg/kg oral): 2,63 | Changes from controls, % ([1]; 10 mg/kg oral): 54% | Changes from controls, absolute ([1]; 10 mg/kg oral): 1,16 | Number of shots ([1]; 10 mg/kg oral): 3,33 | Changes from controls, % ([1]; 30 mg/kg oral): 83% | Changes from controls, absolute ([1]; 30 mg/kg oral): 1,8 | Number of shots ([1]; 30 mg/kg oral): 3,97 | -x (number of shots) ([1]; Table 1b, 10 mg/kg pentoxifylline orally without acetylsalicylic acid): 3,27 | % change from controls ([1]; Table 1b, 10 mg/kg pentoxifylline orally without acetylsalicylic acid, p < 0,05): +49% | effect in laser-induced thrombosis ([1]; oral dose 10 mg/kg): significant effect | effect in laser-induced thrombosis ([1]; single oral dose 5 mg/kg): not significant | inhibition of thrombus formation ([1]; single oral dose 5 mg/kg): 20% | Percentage improvement, volume of paw edema, left paw [3]: 3% | Percentage improvement, volume of paw edema, right paw [3]: 0% | release of a substance having antiaggregatory activity (rat aortas): can be increased | erythrocyte filterability ([4]; 30 mg): 79% | erythrocyte filterability in arthritic rats (in words) [4]: can be increased again | induced platelet aggregation [5]: 94% | in vitro aggregation of platelets (platelets): can be inhibited
